The target in assay [1] is DAPK1 (Homo sapiens (Human), UniProt P53355). Nature of the assay: Reaction Biology HotSpot kinase assay. Type of assay: biochemical. The note with it: 500 nM compound; read-out: Percentage kinase inhibition DAPK1. The gist of the method:
(§1)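 Single-point screen, 500 nM cpd; 20 min preinc with enzyme/substrate; start with ATP + 33P-ATP, 100 μM final; 2 h RT; P81 filter capture. Buffer: 20 mM HEPES pH 7.5, 10 mM MgCl2, 1 mM EGTA, 0.02% Brij35, 1% DMSO. Data as % activity vs DMSO.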

Assay [2] addresses DNA-PK (Homo sapiens (Human), UniProt P78527). Nature of the assay: Reaction Biology HotSpot kinase assay. In kind it is biochemical. The conditions noted are these: 500 nM compound; read-out: Percentage kinase inhibition DNA-PK. The gist of the method:
as §1

Assay [3] concerns the target FGFR2 (Homo sapiens (Human), UniProt P21802). Kind of assay: Reaction Biology HotSpot kinase assay. In kind it is biochemical. The note with it: 500 nM compound; read-out: Percentage kinase inhibition FGFR2. The gist of the method:
as §1

Assay [4] has as its target FGFR3 (Homo sapiens (Human), UniProt P22607). Kind of assay: Reaction Biology HotSpot kinase assay. The note with it: 500 nM compound; read-out: Percentage kinase inhibition FGFR3. In kind it is biochemical. The gist of the method:
as §1

In assay [5] the target is FGFR4 (Homo sapiens (Human), UniProt P22455). Nature of the assay: Reaction Biology HotSpot kinase assay. In kind it is biochemical. The note with it: 500 nM compound; read-out: Percentage kinase inhibition FGFR4. The gist of the method:
as §1

Assay [6] addresses MEKK2 (Homo sapiens (Human), UniProt Q9Y2U5). Nature of the assay: Reaction Biology HotSpot kinase assay. In kind it is biochemical. The note with it: 500 nM compound; read-out: Percentage kinase inhibition MEKK2. The gist of the method:
as §1

Assay [7] addresses PDGFRb (Homo sapiens (Human), UniProt P09619). Kind of assay: Reaction Biology HotSpot kinase assay. In kind it is biochemical. The conditions noted are these: 500 nM compound; read-out: Percentage kinase inhibition PDGFRb. The gist of the method: as §1
The target in assay [8] is RIPK2 (Homo sapiens (Human), UniProt O43353). Nature of the assay: Reaction Biology HotSpot kinase assay. Type of assay: biochemical. The note with it: 500 nM compound; read-out: Percentage kinase inhibition RIPK2. The gist of the method: as §1
The target of assay [9] is RIPK3 (Homo sapiens (Human), UniProt Q9Y572). Kind of assay: Reaction Biology HotSpot kinase assay. The note with it: 500 nM compound; read-out: Percentage kinase inhibition RIPK3. In kind it is biochemical. The gist of the method: as §1
The target in assay [10] is RIPK4 (Homo sapiens (Human), UniProt P57078). Kind of assay: Reaction Biology HotSpot kinase assay. Type of assay: biochemical. The conditions noted are these: 500 nM compound; read-out: Percentage kinase inhibition RIPK4. The gist of the method:
as §1

The target of assay [11] is ABL1 (T315I) non-phosphorylated (Homo sapiens (Human), UniProt P00519, T315I). Kind of assay: DiscoverX Kd Elect binding.
The target in assay [12] is HCK (Homo sapiens (Human), UniProt P08631). Nature of the assay: DiscoverX Kd Elect binding. As for the experimental part:
(§2) HCK is expressed more in human primary leukemic stem cells than in human normal hematopoietic stem cells. […] Other protein kinases such as SYK, BRAF, p38 (p38MAPK), PDGFRα/β, FGFR1, RET, FLT4, Tie2 have also been linked to leukemia. […] Thus, it was tested if HSN286 and analogs were also targeting kinases that play critical roles in AML. […] (Table 9). The inhibition of the Src-kinase family could be important clinically because these kinases are downstream of FLT3. In the event of FLT3 mutation, the inhibition of the Src-family kinases could still lead to proliferation inhibition.

Assay [13] deals with KIT (Homo sapiens (Human), UniProt P10721). Kind of assay: DiscoverX Kd Elect binding. On the procedure:
as §2

Assay [14] addresses LYN (Homo sapiens (Human), UniProt P07948). Nature of the assay: DiscoverX Kd Elect binding. As for the experimental part: as §2
In assay [15] the target is PIK3CA (Homo sapiens (Human), UniProt P42336). Nature of the assay: DiscoverX Kd Elect binding. As for the experimental part:
as §2

Assay [16] addresses PIM1 (Homo sapiens (Human), UniProt P11309). Kind of assay: DiscoverX Kd Elect binding. On the procedure: as §2
Assay [17] concerns the target PLK1 (Homo sapiens (Human), UniProt P53350). Kind of assay: DiscoverX Kd Elect binding. As for the experimental part: as §2
Assay [18] concerns the target SRC (Homo sapiens (Human), UniProt P12931). Kind of assay: DiscoverX Kd Elect binding. On the procedure: as §2
Assay [19] concerns HCT116. Kind of assay: Proliferation inhibition at single concentration (CellTiter-Blue). Type of assay: cell-based. The note with it: 1 μM compound. (Alamar Blue is a resazurin reagent that responds to reducing activity.)
The test system of assay [20] is HeLa. The assay is described as above. The conditions noted are these: 1 μM compound. Type of assay: cell-based.
In assay [21] the test system is MCF-7. The description is as above. Type of assay: cell-based. The note with it: 1 μM compound.

One may read the Kd as the concentration at which binding is half-saturated. A high value points to weaker binding.

Bounds are passed on as bounds.

Chain of PIM1 (P11309 whole entry): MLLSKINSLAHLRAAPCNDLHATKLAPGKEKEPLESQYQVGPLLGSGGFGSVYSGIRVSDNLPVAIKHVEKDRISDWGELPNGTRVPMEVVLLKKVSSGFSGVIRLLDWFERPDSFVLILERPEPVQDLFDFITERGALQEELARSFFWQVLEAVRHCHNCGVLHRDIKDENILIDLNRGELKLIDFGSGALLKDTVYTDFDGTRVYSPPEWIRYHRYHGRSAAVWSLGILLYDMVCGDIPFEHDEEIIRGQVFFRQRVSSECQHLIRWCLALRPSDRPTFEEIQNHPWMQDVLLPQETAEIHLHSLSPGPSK
Chain of HCK (P08631 whole entry): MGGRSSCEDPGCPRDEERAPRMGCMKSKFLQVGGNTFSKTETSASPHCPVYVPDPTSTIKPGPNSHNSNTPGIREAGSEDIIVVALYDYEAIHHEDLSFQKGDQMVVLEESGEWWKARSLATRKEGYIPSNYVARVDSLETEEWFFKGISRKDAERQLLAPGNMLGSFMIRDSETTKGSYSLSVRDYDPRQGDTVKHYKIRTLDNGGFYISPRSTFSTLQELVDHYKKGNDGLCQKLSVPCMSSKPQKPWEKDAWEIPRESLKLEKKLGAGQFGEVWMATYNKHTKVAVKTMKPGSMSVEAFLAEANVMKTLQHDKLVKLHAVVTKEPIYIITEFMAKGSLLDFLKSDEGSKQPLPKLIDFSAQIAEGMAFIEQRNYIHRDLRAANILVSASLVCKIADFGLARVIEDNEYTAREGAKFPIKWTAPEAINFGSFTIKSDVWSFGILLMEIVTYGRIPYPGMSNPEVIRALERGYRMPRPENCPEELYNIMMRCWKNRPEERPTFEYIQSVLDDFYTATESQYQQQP
Chain of PDGFRb (P09619 33-1106): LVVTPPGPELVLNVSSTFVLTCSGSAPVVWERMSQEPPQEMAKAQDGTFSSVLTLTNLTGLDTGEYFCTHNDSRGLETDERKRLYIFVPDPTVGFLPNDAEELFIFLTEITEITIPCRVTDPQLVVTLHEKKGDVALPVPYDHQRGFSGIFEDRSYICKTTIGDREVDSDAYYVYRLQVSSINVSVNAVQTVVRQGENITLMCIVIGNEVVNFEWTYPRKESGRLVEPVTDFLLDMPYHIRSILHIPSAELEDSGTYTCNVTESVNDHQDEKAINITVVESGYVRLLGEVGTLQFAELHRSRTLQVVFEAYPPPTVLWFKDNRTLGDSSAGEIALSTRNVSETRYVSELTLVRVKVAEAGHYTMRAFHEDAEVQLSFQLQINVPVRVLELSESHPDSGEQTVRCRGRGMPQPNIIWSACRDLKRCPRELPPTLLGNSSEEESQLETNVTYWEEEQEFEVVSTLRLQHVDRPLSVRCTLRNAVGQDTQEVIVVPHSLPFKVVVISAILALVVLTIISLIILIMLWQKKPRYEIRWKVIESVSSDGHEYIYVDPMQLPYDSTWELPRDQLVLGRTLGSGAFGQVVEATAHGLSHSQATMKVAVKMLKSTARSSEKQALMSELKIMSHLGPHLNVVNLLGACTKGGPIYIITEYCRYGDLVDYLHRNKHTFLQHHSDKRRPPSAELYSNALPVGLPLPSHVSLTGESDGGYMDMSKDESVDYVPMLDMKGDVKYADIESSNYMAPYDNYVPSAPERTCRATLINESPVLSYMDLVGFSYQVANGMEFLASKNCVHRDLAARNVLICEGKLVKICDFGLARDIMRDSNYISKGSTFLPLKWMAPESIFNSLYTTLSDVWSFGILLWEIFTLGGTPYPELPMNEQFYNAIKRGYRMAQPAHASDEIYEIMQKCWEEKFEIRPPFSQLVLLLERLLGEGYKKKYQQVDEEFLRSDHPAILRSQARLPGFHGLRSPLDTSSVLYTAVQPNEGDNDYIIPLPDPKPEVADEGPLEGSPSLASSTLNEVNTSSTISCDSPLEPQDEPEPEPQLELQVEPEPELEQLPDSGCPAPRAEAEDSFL
Chain of FGFR3 (P22607 23-806): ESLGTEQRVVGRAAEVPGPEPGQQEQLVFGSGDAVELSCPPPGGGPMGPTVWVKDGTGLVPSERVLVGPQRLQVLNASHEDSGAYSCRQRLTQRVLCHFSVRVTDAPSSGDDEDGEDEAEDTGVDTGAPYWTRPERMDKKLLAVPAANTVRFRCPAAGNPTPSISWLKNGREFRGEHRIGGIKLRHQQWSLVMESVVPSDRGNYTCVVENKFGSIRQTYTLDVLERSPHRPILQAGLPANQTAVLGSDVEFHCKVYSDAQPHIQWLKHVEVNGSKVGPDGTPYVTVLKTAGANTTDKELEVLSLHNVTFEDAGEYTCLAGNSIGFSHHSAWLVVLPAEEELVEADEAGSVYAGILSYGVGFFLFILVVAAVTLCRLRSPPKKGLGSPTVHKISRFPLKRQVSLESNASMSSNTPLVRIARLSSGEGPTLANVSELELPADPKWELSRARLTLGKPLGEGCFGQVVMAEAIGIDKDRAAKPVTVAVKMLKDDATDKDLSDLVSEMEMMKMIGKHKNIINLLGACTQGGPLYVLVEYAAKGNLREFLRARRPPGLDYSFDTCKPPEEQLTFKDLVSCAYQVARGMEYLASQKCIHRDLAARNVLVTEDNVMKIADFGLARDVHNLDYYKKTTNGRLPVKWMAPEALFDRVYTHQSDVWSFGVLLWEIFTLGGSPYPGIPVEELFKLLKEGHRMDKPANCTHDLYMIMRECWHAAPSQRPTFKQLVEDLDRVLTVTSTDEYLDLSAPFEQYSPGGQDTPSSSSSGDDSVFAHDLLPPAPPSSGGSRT
Chain of FGFR4 (P22455 22-802): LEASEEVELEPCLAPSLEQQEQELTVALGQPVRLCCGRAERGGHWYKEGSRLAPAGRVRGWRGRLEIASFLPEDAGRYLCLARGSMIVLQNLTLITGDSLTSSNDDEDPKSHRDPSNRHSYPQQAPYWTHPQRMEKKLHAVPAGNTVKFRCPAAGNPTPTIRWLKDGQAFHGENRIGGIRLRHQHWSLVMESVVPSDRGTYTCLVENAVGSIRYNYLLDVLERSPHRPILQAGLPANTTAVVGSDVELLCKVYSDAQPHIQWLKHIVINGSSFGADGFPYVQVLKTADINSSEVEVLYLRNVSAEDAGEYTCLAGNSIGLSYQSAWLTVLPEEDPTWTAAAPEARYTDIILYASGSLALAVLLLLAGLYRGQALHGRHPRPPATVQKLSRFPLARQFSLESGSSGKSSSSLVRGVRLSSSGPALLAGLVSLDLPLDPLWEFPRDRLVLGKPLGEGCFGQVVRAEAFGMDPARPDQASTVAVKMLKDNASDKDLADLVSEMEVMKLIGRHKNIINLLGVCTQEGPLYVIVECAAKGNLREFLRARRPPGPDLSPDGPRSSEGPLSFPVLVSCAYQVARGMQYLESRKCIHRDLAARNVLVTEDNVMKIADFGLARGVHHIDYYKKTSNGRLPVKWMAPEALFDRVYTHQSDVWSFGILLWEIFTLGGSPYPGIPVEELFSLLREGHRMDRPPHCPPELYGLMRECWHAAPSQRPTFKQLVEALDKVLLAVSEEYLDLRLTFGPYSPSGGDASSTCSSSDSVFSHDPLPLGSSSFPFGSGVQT
Chain of PLK1 (P53350 whole entry): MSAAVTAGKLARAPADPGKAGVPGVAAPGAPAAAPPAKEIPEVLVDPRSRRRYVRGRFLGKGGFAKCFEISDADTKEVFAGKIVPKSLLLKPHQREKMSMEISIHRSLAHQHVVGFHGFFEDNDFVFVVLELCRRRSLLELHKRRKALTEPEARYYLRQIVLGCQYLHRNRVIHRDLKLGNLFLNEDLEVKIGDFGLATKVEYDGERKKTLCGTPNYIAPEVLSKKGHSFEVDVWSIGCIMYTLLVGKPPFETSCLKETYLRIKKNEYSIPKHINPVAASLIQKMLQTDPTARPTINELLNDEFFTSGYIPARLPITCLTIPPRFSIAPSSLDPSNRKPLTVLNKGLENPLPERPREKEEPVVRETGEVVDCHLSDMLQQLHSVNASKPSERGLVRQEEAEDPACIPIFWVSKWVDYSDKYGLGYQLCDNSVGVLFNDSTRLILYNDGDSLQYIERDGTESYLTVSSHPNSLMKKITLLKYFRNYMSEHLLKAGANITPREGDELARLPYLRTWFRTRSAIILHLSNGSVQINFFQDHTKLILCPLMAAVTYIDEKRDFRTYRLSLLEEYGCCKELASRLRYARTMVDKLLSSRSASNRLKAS
Chain of MEKK2 (Q9Y2U5 whole entry): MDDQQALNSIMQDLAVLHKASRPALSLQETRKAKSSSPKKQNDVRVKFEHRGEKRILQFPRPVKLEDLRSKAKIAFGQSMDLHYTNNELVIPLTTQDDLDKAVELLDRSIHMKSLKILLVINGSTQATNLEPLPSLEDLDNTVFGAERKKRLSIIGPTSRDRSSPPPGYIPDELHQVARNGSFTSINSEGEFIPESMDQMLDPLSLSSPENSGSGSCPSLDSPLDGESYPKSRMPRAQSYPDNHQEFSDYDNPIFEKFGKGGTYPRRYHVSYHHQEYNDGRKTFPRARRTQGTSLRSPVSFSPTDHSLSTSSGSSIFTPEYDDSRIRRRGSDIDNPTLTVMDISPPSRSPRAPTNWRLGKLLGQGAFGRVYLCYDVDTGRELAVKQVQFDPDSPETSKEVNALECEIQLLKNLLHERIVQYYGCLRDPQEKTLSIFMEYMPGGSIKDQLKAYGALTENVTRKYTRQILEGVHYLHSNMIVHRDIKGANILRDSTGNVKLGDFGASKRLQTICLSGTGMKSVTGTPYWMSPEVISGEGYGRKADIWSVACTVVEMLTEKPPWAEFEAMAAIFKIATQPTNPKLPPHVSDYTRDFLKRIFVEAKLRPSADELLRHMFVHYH

As for `Cc1ccc(C(=O)Nc2ccc(CN3CCN(C)CC3)c(C(F)(F)F)c2)cc1C#Cc1c(N)ncc2ccc(Cl)cc12` [HSN286], the inhibition at 0.5 µM in [1] stood at 9%; in assay [2] it was 0%; in [3] it was 96%; in assay [4], 88%; in assay [5] it was 82%; in [6], 52%. Further, the inhibition at 0.5 µM in assay [7] stood at 96%; in [8], 25%; in assay [9], 96%; in assay [10], 32%. Moreover, the Kd in assay [11] came out at 29 nM; in assay [12], 3.6 nM; in assay [13], 42 nM; in [14], 11 nM; in assay [15] it was 26000 nM; in [16] it was 11000 nM. The results for the Kd in assay [17] and in [18] were above 30000 nM and 16 nM, respectively. In addition, the inhibition at 1 µM in [19] (Homo sapiens, HCT-116, read-out: Percent inhibition of proliferation HCT116) is 100%; in assay [20] (Homo sapiens, HeLa, read-out: Percent inhibition of proliferation HeLa), 100%; in assay [21] (Homo sapiens, MCF7, read-out: Percent inhibition of proliferation MCF-7), 100%.

For `CN(C)CC(O)CNC(=O)c1ccc(C#Cc2c(N)ncc3ccc(Cl)cc23)cc1` (stereo not drawn) [HSM1702], in assay [19], the “Percent inhibition of proliferation HCT116” value came to 33%. Also, the “Percent inhibition of proliferation HeLa” value in [20] is recorded as 17%. Besides, the “Percent inhibition of proliferation MCF-7” value in [21] is listed as 100%.

`COc1cc2nc(N)nc(C#Cc3cc(C(=O)Nc4ccc(CN5CCN(C)CC5)c(C(F)(F)F)c4)ccc3C)c2cc1OC` [HSN325]: the inhibition at 0.5 µM in assay [2] came out at 0%.

On to `Cc1ccc(C(=O)Nc2ccc(CN3CCN(C)CC3)c(C(F)(F)F)c2)cc1C#Cc1cc(N)nc2ccccc12` [HSN285], for which the inhibition at 0.5 µM in assay [1] is 14%; in assay [3], 0%; in [4], 0%; in assay [5], 0%; in [6], 0%; in [7], 46%. The inhibition at 0.5 µM in [8] worked out at 0%; in assay [9], 0%; in assay [10] it was 25%.

As for `Cc1ccc(C(=O)Nc2ccc(CN3CCN(C)CC3)c(C(F)(F)F)c2)cc1C#Cc1cnc(N)c2ncccc12` [HSN356, 3-((8-amino-1,7-naphthyridin-5-yl)ethynyl)-4-methyl-N-(4-((4-methylpiperazin-1-yl)methyl)-3-(trifluoromethyl)phenyl)benzamide], the dissociation constant Kd in [11] was 2.4 nM; in assay [12] it was 2.5 nM; in [13], 7.2 nM; in assay [14], 5.4 nM; in assay [15], above 30000 nM; in [16], 19000 nM. For the same molecule, the results for the Kd in assay [17] and in assay [18] were 9600 nM and 15 nM, respectively.

The values above are taken from patent publication US20250084039A1, “4-SUBSTITUTED AMINOISOQUINOLINE DERIVATIVES” (Purdue Research Foundation, priority 2016, published 2025).
